Here are results for 15 molecules from patent US12673950B2, “Spiros and related analogs for inhibiting YAP/TAZ-TEAD” (THE KATHOLIEKE UNIVERSITEIT LEUVEN, priority 2021, dated 2026).

The structures appear in SMILES notation. pEC50, pIC50: −log10 of the molar value.

Holding throughout (type): cell-based
For assay [1], the system named is YAP/TAZ-TEAD transcription. Kind of assay: Reporter gene assay for measuring the inhibition of YAP/TAZ-TEAD transcription (TEAD-responsive element luciferase reporter in Hek293T cells). The note with it: Hek293T cells transfected with TEAD-responsive luciferase reporter, 24 hours incubation. How it is done:
Hek293T cells are cultured in DMEM supplemented with 10% fetal bovine serum, Sodium pyruvate, Sodium bicarbonate, L-glutamine. The cells are harvested and transiently transfected with TEAD-responsive element luciferase reporter. Transfected cells are plated in 384-wells plate containing pre-diluted compounds. After 24 hours incubation at 37° C./5% CO2, assay plates were cooled down to RT and levelled to an equal volume per well, prior to the addition of 25 uL luciferase substrate SteadyLite (Perkin Elmer)/well. The plate was shaken for 10 min at 600 rpm, centrifuged for 1 min at 500 rpm and measured with an Envision reader (PerkinElmer). The amount of relative light units produced by the TEAD reporter is used to calculated percent of inhibition.
The percent of reporter inhibition was calculated in the presence of a positive control inhibitor (100% inhibition) versus a condition with the presence of the vehicle basal activity of the reporter (0% inhibition). The ability of a test compound to inhibit this activity was determined as: Percentage inhibition=[1−((RLU determined in the presence of vehicle−RLU determined for sample with test compound present) divided by (RLU determined in the presence of vehicle−RLU determined for sample with positive control inhibitor))]*100
The activities of example compounds tested are depicted in Table 3. The activity ranges A, B and C refer to IC50 values in the reporter gene assay as follows: “A”: IC50<1 μM; “B”: 1 μM≤IC50≤20 μM and “C”: IC50>20 μM; NT=not tested.
On the technique in general: A reporter such as luciferase makes a cellular process visible.

Another assay relates to NCI-H226. The experiment in a line: Mesothelioma cell line proliferation assay (ATPlite), NCI-H226. The conditions noted are these: Homo sapiens, 144 h; NCI-H226 mesothelioma cells, 6 days incubation, ATPlite cell viability. How it is done:
(§1) Mesothelioma cell lines, NCI-H226 and NCI-H2052 (all sourced from the ATCC cell culture collection) are plated in 96-well plates (Corning® 96 Well White Polystyrene Microplate clear flat bottom, white polystyrene (TC-Treated)), at 1500 cells/well in full medium (RPMI 1640 ATCC modification with L-glutamine, HEPES, Phenol Red, Sodium Pyruvate, High glucose, Low sodium bicarbonate and 10% fetal bovine serum). Cells are incubated overnight at 37° C. in an incubator with 5% CO2. Then compounds, dissolved in DMSO, are added in dose-response. Cells are incubated with compound dilutions for another 6 days at 37° C. in an incubator with 5% CO2. Cell viability is quantitated using the ATPlite kit (Perkin-Elmer) and the luminescence is read-out using an Envision instrument (Perkin-Elmer). The amount of relative light units produced using the ATPlite kit is used to calculated percent of inhibition.
(§2) The activities of some example compounds are depicted in Table 4. The activity ranges A, B and C refer to EC50 values in the mesothelioma cell line proliferation assay as described as follows: “A”: EC50<1 μM; “B”: 1 μM≤EC50≤10 μM and “C”: EC50>10 μM; NT: not tested.

The next assay deals with NCI-H2052. Kind of assay: Mesothelioma cell line proliferation assay (ATPlite), NCI-H2052. The conditions noted are these: Homo sapiens, 144 h; NCI-H2052 mesothelioma cells, 6 days incubation, ATPlite cell viability. How it is done:
as §1, §2
On the technique in general: Cellular ATP, detected with luciferase, serves as a proxy for viable cell number.

Turning to `C=CC(=O)N1CCC2(Cc3ccccc3N(c3ccc(C(F)(F)F)cc3)C2)C1` (racemic) [Cpd. No. 003, 1-(1′-(4-(trifluoromethyl)phenyl)-1′,4′-dihydro-2′H-spiro[pyrrolidine-3,3′-quinolin]-1-yl)prop-2-en-1-one], in assay [1] (Homo sapiens, HEK-293T, 24 h), the pIC50 was > 6.00. The negative-log EC50 (pEC50) in the assay with NCI-H226 and in the assay on NCI-H2052 was > 6.00 each time.

`C=CC(=O)N1CCC2(Cc3ccccc3N(c3ccc(C(F)(F)F)cc3)C2)C1` (single isomer, unassigned) [Cpd. No. 003-En1, (R)- or (S)-1-(1′-(4-(trifluoromethyl)phenyl)-1′,4′-dihydro-2′H-spiro[pyrrolidine-3,3′-quinolin]-1-yl)prop-2-en-1-one]: the negative logarithm of the IC50 (pIC50) in assay [1] is > 6.00.

As for `C=CC(=O)N1CCC2(Cc3ccccc3N(c3ccc(C(F)(F)F)cc3)C2)C1` (single isomer, unassigned) [Cpd. No. 003-En2, (R)- or (S)-1-(1′-(4-(trifluoromethyl)phenyl)-1′,4′-dihydro-2′H-spiro[pyrrolidine-3,3′-quinolin]-1-yl)prop-2-en-1-one], in assay [1] (Homo sapiens, HEK-293T, 24 h), the pIC50 is > 6.00. Further, the pEC50 with NCI-H226 and in the assay on NCI-H2052 was > 6.00 throughout.

Regarding `CCC(=O)N1CCC2(Cc3ccccc3N(c3ccc(C(F)(F)F)cc3)C2)C1` (single isomer, unassigned) [Cpd. No. 004-En1, (R)- or (S)-1-(1′-(4-(trifluoromethyl)phenyl)-1′,4′-dihydro-2′H-spiro[pyrrolidine-3,3′-quinolin]-1-yl)propan-1-one], the pIC50 in assay [1] was < 4.70.

On to `CCC(=O)N1CCC2(Cc3ccccc3N(c3ccc(C(F)(F)F)cc3)C2)C1` (single isomer, unassigned) [Cpd. No. 004-En2, (R)- or (S)-1-(1′-(4-(trifluoromethyl)phenyl)-1′,4′-dihydro-2′H-spiro[pyrrolidine-3,3′-quinolin]-1-yl)propan-1-one], for which the pIC50 in assay [1] is 4.70 to 6.00.

Turning to `CS(=O)(=O)N1CCC2(Cc3ccccc3N(c3ccc(C(F)(F)F)cc3)C2)C1` (single isomer, unassigned) [Cpd. No. 005-En1, (R)- or (S)-1-(methylsulfonyl)-1′-(4-(trifluoromethyl)phenyl)-1′,4′-dihydro-2′H-spiro[pyrrolidine-3,3′-quinoline]], the pIC50 in assay [1] is < 4.70.

On to `CS(=O)(=O)N1CCC2(Cc3ccccc3N(c3ccc(C(F)(F)F)cc3)C2)C1` (single isomer, unassigned) [Cpd. No. 005-En2, (R)- or (S)-1-(methylsulfonyl)-1′-(4-(trifluoromethyl)phenyl)-1′,4′-dihydro-2′H-spiro[pyrrolidine-3,3′-quinoline]], for which the negative-log IC50 (pIC50) in assay [1] is > 6.00. Moreover, the pEC50 with NCI-H226 and in the assay on NCI-H2052 was > 6.00 each time.

Turning to `C=CC(=O)N1CCC2(CC1)Cc1ccccc1N(c1ccc(C(F)(F)F)cc1)C2=O` [Cpd. No. 001, 1-acryloyl-1′-(4-(trifluoromethyl)phenyl)-1′,4′-dihydro-2′H-spiro[piperidine-4,3′-quinolin]-2′-one], the negative logarithm of the IC50 (pIC50) in assay [1] (Homo sapiens, HEK-293T, 24 h) is > 6.00.

Turning to `C=CC(=O)N1CCC2(CC1)Cc1ccccc1N(c1ccc(C(F)(F)F)cc1)C2` [Cpd. No. 002, 1-(1′-(4-(trifluoromethyl)phenyl)-1′,4′-dihydro-2′H-spiro[piperidine-4,3′-quinolin]-1-yl)prop-2-en-1-one], in assay [1] (Homo sapiens, HEK-293T, 24 h), the pIC50 is > 6.00. Further, the negative-log EC50 (pEC50) in the assay with NCI-H226 is > 6.00; in the assay with NCI-H2052, 5.00 to 6.00.

`C=CC(=O)N1CC2(Cc3ccccc3N(c3ccc(C(F)(F)F)cc3)C2)C1` [Cpd. No. 006, 1-(1′-(4-(trifluoromethyl)phenyl)-1′,4′-dihydro-2′H-spiro[azetidine-3,3′-quinolin]-1-yl)prop-2-en-1-one]: in assay [1] (Homo sapiens, HEK-293T, 24 h), the negative-log IC50 (pIC50) was > 6.00. In addition, the negative-log EC50 (pEC50) with NCI-H226 and with NCI-H2052 was > 6.00 in each case.

Regarding `CCC(=O)N1CC2(Cc3ccccc3N(c3ccc(C(F)(F)F)cc3)C2)C1` [Cpd. No. 007, 1-(1′-(4-(trifluoromethyl)phenyl)-1′,4′-dihydro-2′H-spiro[azetidine-3,3′-quinolin]-1-yl)propan-1-one], in assay [1] (Homo sapiens, HEK-293T, 24 h), the pIC50 was < 4.70.

In the case of `CC(NC(=O)N1CCC2(Cc3ccccc3N(c3ccc(C(F)(F)F)cc3)C2)C1)c1ccccn1` (stereo not shown) [Cpd. No. 008, N-[1-(2-pyridyl)ethyl]-1-[4-(trifluoromethyl)phenyl]spiro[2,4-dihydroquinoline-3,3′-pyrrolidine]-1′-carboxamide], in assay [1] (Homo sapiens, HEK-293T, 24 h), the pIC50 was 4.70 to 6.00.

For `C=CC(=O)N1CCC2(Cc3cc(C(F)(F)F)ccc3N(c3ccc(C(F)(F)F)cc3)C2)C1` (stereo not shown) [Cpd. No. 009, 1-[6-(trifluoromethyl)-1-[4-(trifluoromethyl)phenyl]spiro[2,4-dihydroquinoline-3,3′-pyrrolidine]-1′-yl]prop-2-en-1-one], the pIC50 in assay [1] (Homo sapiens, HEK-293T, 24 h) was > 6.00.

Take `CC(=O)N1CCC2(Cc3cc(C(F)(F)F)ccc3N(c3ccc(C(F)(F)F)cc3)C2)C1` (stereo not shown) [Cpd. No. 010, 1-[6-(trifluoromethyl)-1-[4-(trifluoromethyl)phenyl]spiro[2,4-dihydroquinoline-3,3′-pyrrolidine]-1′-yl]ethanone]: the pIC50 in assay [1] (Homo sapiens, HEK-293T, 24 h) is < 4.70.

`CS(=O)(=O)N1CCC2(Cc3cc(C(F)(F)F)ccc3N(c3ccc(C(F)(F)F)cc3)C2)C1` (stereo not shown) [Cpd. No. 011, 1′-methylsulfonyl-6-(trifluoromethyl)-1-[4-(trifluoromethyl)phenyl]spiro[2,4-dihydroquinoline-3,3′-pyrrolidine]]: the pIC50 in assay [1] (Homo sapiens, HEK-293T, 24 h) is > 6.00.

The pIC50 is −log10 of the IC50, conventionally taken in molar units. A higher pIC50 goes with a small IC50. A word on the pEC50: it is the negative decadic logarithm of the EC50, by convention in mol/L. Low readings indicate a high EC50, high ones a low EC50.
